In patent publication US10548911B2, “Small molecule anti-scarring agents” (UNIVERSITY OF ROCHESTER, priority 2014, dated 2020):
“Also recorded” adds a separate entry of the source.

Legend:
[1] = test system: TGFβ-induced SBE-luciferase activity; assay: Secondary dual luciferase screen (SBE-luciferase normalized to constitutive Renilla luciferase); type: cell-based, human; settings: for inhibition of luciferase expression, dose responsiveness: secondary dual luciferase screen, several doses (low micromolar)
Protocol: FIG. 1A is a diagram of Smad-dependent reporter construct. Four tandem Smad binding elements (SBE) were inserted upstream of the minimal Thymidine Kinase (TK) promoter. Downstream of the promoter is a destabilized version of the firefly luciferase gene (luc2P) present in the pLuc2P-Hygro plasmid which also harbors the hygromycin resistance gene. The plasmid was introduced into HEK293FT cell line and individual colonies were selected with hygromycin (200 ug/ml) to develop a Smad/TGFβ dependent-luciferase reporter cell line. FIG. 1B is a graph illustrating the response of the reporter cell line to 1 ng/ml treatment of TGFβ for 20 hours, which results in an approximately 20-fold increase of luciferase activity.
They are: Benzbromarone (“BZB”), Bithionate sodium (“BTS”), Piplartine (piperlongumine) (“PPT”), Amsacrine (“ASC”), and Alexidine (“AXD”). A secondary luciferase screening assay was performed to determine specificity and dose responsiveness of these compounds in comparison to salinomycin (“SNC”). The secondary screen utilizes dual luciferase technology that includes the above mentioned SBE-luciferase in addition to a Renilla luciferase that is under control of the constitutive SV40 promoter. Therefore the SBE-luciferase activity can be normalized to the Renilla luciferase activity to control for toxicity and non-specific effects. The secondary screen can thus be used to remove small molecules that display overt toxicity and/or non-specific effects on the primary assay.

[2] = test system: collagen production of TGFβ induced myofibroblasts; assay: Collagen production assay (collagen I slot blot of culture supernatant); type: cell-based, human; settings: 72 hours
Protocol: Cell culture supernatant was collected and transferred (5-20 ul) to PVDF membrane using a slot blot device. The membrane was blocked and probed with a goat anti-collagen antibody (1:5000), washed and incubated with a donkey anti-goat antibody conjugated to HRP. Band intensities were quantified using ImageLab software and values were normalized to vehicle treatments.
TED fibroblasts were treated with TGFβ (1 ng/ml) in the presence or absence of 10-250 nM salinomycin for 72 hours to allow formation of myofibroblasts. After 72 hours, cells were harvested and analyzed by Western blot. As expected, the fibroblasts robustly responded to TGFβ, expressing high levels of αSMA and calponin (FIG. 2A). […] At 50 nM salinomycin, expression of αSMA was reduced by 4-fold over TGFβ treatment alone. Furthermore, at 250 nM salinomycin, αSMA expression was reduced by approximately 16-fold, to levels at or below untreated fibroblasts. […] Another key role of myofibroblasts in scar formation is the production of collagen. Whether salinomycin could block myofibroblast collagen production was assessed. Cells were treated with TGFβ and salinomycin as above and after 72 hours, culture medium was collected and analyzed for collagen levels using a specific collagen I antibody and slot blot analysis.

[3] = test system: phospho-Smad2; assay: Western blot of phospho-Smad2/3 in TGFβ-treated human orbital fibroblasts; type: cell-based
Protocol: To further characterize the molecular mechanisms whereby salinomycin (and other polyether antibiotics) blocks TGFβ induced myofibroblast formation, activation kinetics were analyzed for some of the key mediators of TGFβ signaling (Weiss et al., “The TGFbeta superfamily signaling pathway,” Wiley Interdiscip. Rev. Dev. Biol. 2:47-63 (2013), which is hereby incorporated by reference in its entirety). Since salinomycin was first identified as a putative anti-scarring molecule by its ability to block TGFβ-induced Smad activity, the levels of phospho-Smad2 were analyzed by Western blot in cells treated with TGFβ or TGFβ plus salinomycin. […] The experiment was repeated, with samples being incubated for extended periods of time including 5, 24, 48 and 72 h hours (FIG. 5A, top panel).

[4] = test system: capsular fibroblasts; assay: Breast implant capsular fibroblasts treated with TGF-β and salinomycin (Western blot, slot blot, morphology); type: cell-based, human; settings: for Thy1 expression: 250 nM, untreated and TGF-β (2.5 ng/mL) treated cultures
Protocol: FIG. 9 is a set of images of capsular fibroblasts explanted from primary tissue samples cultured in vitro. Treatment consisted of 48 hours growth in serum-starved media (0.1% fetal bovine serum), followed by administration of vehicle, 2.5 ng/mL transforming growth factor-beta (TGF-β), 250 nM salinomycin (SNC), or TGF-β plus SNC for 72 hours. […] Original magnification 200×.
After treatment, cells were lysed for protein extraction and analysis via Western blot. Data are presented in graph form (FIG. 10A) and as images of Western blots (FIG. 10B). […] All protein expression is relative to β-tubulin levels. At time of cell harvest, media supernatant was also taken and equal volumes run on a slot blot to compare presence of extracellular soluble collagen. In like manner, collagen I increased with TGF- and was reduced with co-administration of SNC. **=p<0.01; ***=p<0.001; ****=p<0.0001.
Peri-implant tissue samples from irradiated (n=4) and non-irradiated (n=9) breast capsules were analyzed for expression of Thy1 mRNA by qRT-PCR (FIG. 8). Additionally, capsular fibroblasts were grown in vitro and treated with the pro-fibrotic cytokine transforming growth factor-β (TGFβ) and the polyether ionophore salinomycin, and analyzed for expression of Thy1, αSMA, fibronectin, and collagen by Western blot (FIG. 9 and FIGS. 10A-B). To investigate the fundamental role of Thy1 in capsular fibroblast/myofibroblast formation, Thy1 expression was depleted using Thy1 siRNA (delivered by lentiviral transduction) (FIGS. 11A-B).

[5] = test system: primary human lung fibroblasts; assay: TGFβ-induced myofibroblast formation, αSMA Western blot and cell images, primary human lung fibroblasts; type: cell-based; settings: HCPT 50 nM or 500 nM, TGFβ, listed as SNC
Protocol: Human lung fibroblasts were treated with various concentrations of 10-hydroxycamptothecin (HCPT) (50 nM or 500 nM) and induced to form scar-forming myofibroblasts by treating with TGFβ.

[6] = test system: TGFβ-induced myofibroblast formation in human fibroblasts; assay: Western blot of myofibroblast markers αSMA and calponin in TGFβ-treated human (TED orbital) fibroblasts; type: cell-based; settings: 250 nM, 72 hours
[7] = test system: p38; settings: human ovarian cancer, 2-7 uM; cited from earlier work
[8] = 250 nM plus TGF-β 2.5 ng/mL, 72 hours

Question: What does the source list for `CC[C@@H](C(=O)[C@@H](C)[C@@H](O)[C@H](C)[C@@H]1O[C@@H]([C@@H](CC)C(=O)O)CC[C@@H]1C)[C@H]1O[C@]2(C=C[C@@H](O)[C@]3(CC[C@@](C)([C@H]4CC[C@](O)(CC)[C@H](C)O4)O3)O2)[C@H](C)C[C@@H]1C` [salinomycin]?
Answer: TGFβ-induced SBE-luciferase activity level ([1]; 1 uM): below baseline levels; inhibition of luciferase expression, dose responsiveness [1]: dose dependent decrease; also recorded: dose responsive decrease; inhibition of luciferase expression, dose responsiveness ([1]; listed as SNC): substantially inhibited luciferase expression; collagen production ([2]; 10 nM): decreases; collagen production ([2]; 100 nM): at baseline levels; collagen production ([2]; 250 nM): below baseline levels; collagen I levels, dose dependence ([2]; 10-250 nM): dose-dependent manner; reduction of TGFβ induced phospho-Smad2/3 levels ([3]; 250 nM, 5 hours): 2 fold; reduction of phospho-Smad2 levels compared to TGFβ alone ([3]; 250 nM, 5 hours): 80%; reduction of TGFβ induced phospho-Smad2/3 levels ([3]; 250 nM, 24 hours): 8-10 fold; reduction of TGFβ induced phospho-Smad2/3 levels ([3]; 250 nM, 24 hours, listed as Salinomycin): 5 fold; phospho-Smad2 levels ([3]; early time points (30 sec-1 hour), TGFβ): did not affect phospho-Smad2 levels; Alpha-SMA expression [4, 8]: below basal levels; cell morphology (myofibroblastic differentiation) [4, 8]: appears to reduce the effect of TGF-β; Thy1 expression ([4]; 72 hours): dramatically reduced; Thy1 expression ([4]; 72 hours, listed as SNC): significantly reduced; TGFβ-increased αSMA and collagen I ([4]; explanted capsular fibroblasts, TGFβ plus salinomycin): nearly completely inhibited; also recorded: reduced; formation of myofibroblasts (cell images) [5]: not in samples treated with HCPT or SNC; also recorded: not in samples with HCPT or salinomycin (SNC); TGFβ induced expression of αSMA and calponin ([6]; MKK6(glu) expressing cells): attenuated the ability of salinomycin to block; TGFβ induced expression of αSMA and calponin ([6]; control GFP expressing cells): blocked their induction; p38 activity [7]: activated
